From patent publication US11091497B2, “Pyrano[3,4-b]pyrazine kappa opioid receptor ligands for treating addiction, pruritus, pain, and inflammation” (The Rockefeller University, priority 2017, dated 2021)

Assays:
[1] = target: T1, kappa opioid receptor (PathHunter U2OS hOPRK1 β-arrestin cell line) (Homo sapiens, UniProt P41145); test: β-arrestin coupling (PathHunter Detection Kit); assay type: cell-based; conditions: for Emax at 10 µM: U2OS, read-out: β-arrestin coupling % efficacy
T1 construct: host or cells: U2OS (PathHunter U2OS hOPRK1 β-arrestin cell line)
T1 sequence (P41145 whole entry): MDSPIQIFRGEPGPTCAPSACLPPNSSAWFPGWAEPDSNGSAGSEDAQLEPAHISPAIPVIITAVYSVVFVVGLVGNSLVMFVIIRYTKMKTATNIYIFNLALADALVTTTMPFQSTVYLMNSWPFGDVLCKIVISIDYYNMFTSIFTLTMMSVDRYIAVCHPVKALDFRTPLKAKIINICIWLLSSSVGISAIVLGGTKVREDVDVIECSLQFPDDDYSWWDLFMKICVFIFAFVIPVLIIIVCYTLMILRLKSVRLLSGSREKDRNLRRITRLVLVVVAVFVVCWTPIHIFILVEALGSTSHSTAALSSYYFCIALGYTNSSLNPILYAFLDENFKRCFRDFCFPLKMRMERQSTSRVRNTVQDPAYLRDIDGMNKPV

Serum prolactin levels = test: Prolactin release in mice; assay type: in vivo; conditions: intraperitoneal, 30 minutes prior to sampling
Procedure: Mice were injected intraperitoneally with the compound to be tested 30 minutes prior to sampling. Trunk blood was collected by rapid decapitation, followed within 2 hours by preparation of serum. Serum prolactin levels were determined using a commercially available enzyme-linked immunoassay (AbCam, Cambridge, UK) following dilution of serum 5-fold in assay buffer.

mice = test: Rotarod incoordination in mice; assay type: in vivo; conditions: intraperitoneal
Source text: In the case of rotarod incoordination, kappa agonist effects in this assay reflect kappa-opioid receptor arrestin mediated signaling. This assay is thought to be a sensitive measure of the sedative properties of kappa opioid receptor agonists. Generally, a compound which has reduced efficacy in the coupling of arrestin with the kappa opioid receptor is thought to have a lowered potential for the sedative side effects of kappa opioid receptor ligands. Rotarod assays in vivo are employed to confirm this possibility.
Rotarod experiments were conducted with mice using a dedicated rodent rotarod apparatus, with up to five animals tested concurrently (IITC Life Science, Woodland Hills, Calif., USA). Rotarod rotation rate begins at 3 rotations per minute, and ramps to 30 rotations per minute over the course of 300 s, at which time the assay is terminated and animals removed to their home cage. Animals were acclimated to the rotarod on at least two occasions prior to the day of the test. On the day of the test, baseline times for each animal to fall off the rotarod were recorded. Mice were then injected intraperitoneally with vehicle or compound, and rotarod measurements conducted, beginning 0-2 minutes after injection, and then subsequently at select time points thereafter.

For `O=C(Cc1ccc(Cl)c(Cl)c1)N1CCN[C@@H]2COC[C@H](N3CCCC3)[C@H]21` (racemic) [Example 5A22, 1-[8-pyrrolidin-1-yl-2,3,4,4a,5,7,8,8a-octahydropyrano(3,4-b)pyrazin-1-yl]-2-(3,4-dichlorophenyl)ethanone], the EC50 [1] was 1.13 µM, the Emax at 10 µM [1] was 67% and the prolactin release (Serum prolactin levels; 5 mg/kg) was “significant prolactin release”. The rotarod incoordination (mice; 10 mg/kg) was “no significant incoordination”, the rotarod incoordination (mice; 30 mg/kg) was “significant incoordination” and the rotarod incoordination (mice; 90 mg/kg) was “significant incoordination”.

In the case of `CN1CCN(C(=O)Cc2ccc(Cl)c(Cl)c2)[C@H]2[C@H]1COC[C@@H]2N1CCCC1` (racemic) [Example 5A23, 1-[4-methyl-8-pyrrolidin-1-yl-3,4a,5,7,8,8a-hexahydro-2H- -pyrano(3,4-b)pyrazin-1-yl]-2-(3,4-dichlorophenyl)ethanone], the EC50 [1] is reported as 5.54 µM, the Emax at 10 µM [1] is reported as 44% and the prolactin release (Serum prolactin levels; 30 mg/kg) is reported as “significant prolactin release”. For the same compound, the rotarod incoordination (mice; 10 mg/kg) was “no significant incoordination”, the rotarod incoordination (mice; 30 mg/kg) was “statistically significant incoordination” and the rotarod incoordination (mice; 90 mg/kg) was “statistically significant incoordination”.
